Measurements from the NIST ThermoML archive (doi:10.1016/j.jct.2018.02.013).
± gives the expanded uncertainty stated by the source.

Key:
[1] = molar heat capacity at constant pressure; details: 101.33 kPa, Liquid, Small sample (50 mg) DSC
[2] = 101.33 kPa, Liquid; for thermal conductivity: transient hot wire; for mass density: Vibrating tube method; for viscosity: Cone and plate viscometry; for electrical conductivity: Direct current cell with electrodes

CCCCCCCC(=O)[O-].CCCCCCCCCCCCCC[P+](CCCCCC)(CCCCCC)CCCCCC [trihexyl(tetradecyl)phosphonium octanoate]
Details	electrical conductivity [S/m]	mass density [kg/m3]	molar heat capacity at constant pressure [J/K/mol]	thermal conductivity [W/m/K]	viscosity [mPa·s]
[1], 293.15 K	–	–	1138.1 ± 70	–	–
[1], 298.15 K	–	–	1150.7 ± 71	–	–
[1], 303.15 K	–	–	1160.7 ± 71	–	–
[1], 308.15 K	–	–	1170.1 ± 72	–	–
[1], 313.15 K	–	–	1178.9 ± 73	–	–
[1], 318.15 K	–	–	1185.8 ± 73	–	–
[1], 323.15 K	–	–	1192.7 ± 73	–	–
[1], 328.15 K	–	–	1199.6 ± 74	–	–
[1], 333.15 K	–	–	1206.5 ± 75	–	–
[1], 338.15 K	–	–	1213.4 ± 75	–	–
[1], 343.15 K	–	–	1220.9 ± 75	–	–
[1], 348.15 K	–	–	1228.4 ± 76	–	–
[1], 353.15 K	–	–	1235.3 ± 76	–	–
[1], 358.15 K	–	–	1242.2 ± 77	–	–
[1], 363.15 K	–	–	1247.2 ± 77	–	–
[2], 278.28 K	–	–	–	0.1611 ± 0.011	–
[2], 288.24 K	–	–	–	0.1601 ± 0.011	–
[2], 293.15 K	–	884.5 ± 1.9	–	–	–
[2], 293.2 K	–	–	–	–	513.6 ± 38
[2], 297.87 K	–	–	–	0.1581 ± 0.01	–
[2], 298.15 K	–	881.4 ± 1.9	–	–	–
[2], 298.2 K	–	–	–	–	400.2 ± 29
[2], 300.6 K	0.00251 ± 0.00016	–	–	–	–
[2], 303.15 K	–	878.4 ± 1.9	–	–	–
[2], 303.2 K	–	–	–	–	301.2 ± 21
[2], 303.6 K	0.00345 ± 0.00017	–	–	–	–
[2], 307.71 K	–	–	–	0.1567 ± 0.011	–
[2], 308 K	0.00428 ± 0.00019	–	–	–	–
[2], 308.2 K	–	–	–	–	230.8 ± 16
[2], 313.15 K	–	872.1 ± 1.9	–	–	–
[2], 313.2 K	–	–	–	–	179.3 ± 12
[2], 313.4 K	0.0057 ± 0.00025	–	–	–	–
[2], 317.92 K	–	–	–	0.1561 ± 0.011	–
[2], 318.2 K	–	–	–	–	141.2 ± 9.1
[2], 319 K	0.0073 ± 0.00032	–	–	–	–
[2], 323.15 K	–	865.9 ± 1.8	–	–	–
[2], 323.2 K	–	–	–	–	113 ± 7.2
[2], 323.8 K	0.0091 ± 0.0004	–	–	–	–
[2], 328.17 K	–	–	–	0.1547 ± 0.012	–
[2], 328.2 K	–	–	–	–	91.42 ± 5.7
[2], 328.4 K	0.011 ± 0.00048	–	–	–	–
[2], 333.15 K	–	859.8 ± 1.8	–	–	–
[2], 333.2 K	0.0137 ± 0.0006	–	–	–	75.22 ± 4.6
[2], 337.66 K	–	–	–	0.1527 ± 0.012	–
[2], 338.2 K	–	–	–	–	62.47 ± 3.8
[2], 338.6 K	0.017 ± 0.00072	–	–	–	–
[2], 343 K	0.0198 ± 0.00084	–	–	–	–
[2], 343.15 K	–	853.7 ± 1.8	–	–	–
[2], 343.2 K	–	–	–	–	52.65 ± 3.2
[2], 347.76 K	–	–	–	0.1507 ± 0.012	–
[2], 348.2 K	–	–	–	–	44.4 ± 2.7
[2], 349.5 K	0.0247 ± 0.001	–	–	–	–
[2], 353.15 K	–	847.6 ± 1.8	–	–	–
[2], 353.2 K	–	–	–	–	37.98 ± 2.3
[2], 358.08 K	–	–	–	0.1497 ± 0.012	–
[2], 358.2 K	–	–	–	–	32.78 ± 2
[2], 363.15 K	–	841.6 ± 1.8	–	–	–
[2], 363.2 K	–	–	–	–	28.12 ± 1.7
[2], 368.2 K	–	–	–	–	24.48 ± 1.5
